Measured values from patent publication EP4223882A1, “PROCESS FOR PRODUCING ALDONIC ACIDS” (Vilnius University, priority 2022, dated 2023).
Where two headings read alike, the source gives them in different places.

What was measured:
[1] = molecular target: T1, PQQGDH (Acinetobacter calcoaceticus, UniProt P13650); conditions: for cmax: sqrt(KM·Ki)
T1 sequence (P13650 25-478): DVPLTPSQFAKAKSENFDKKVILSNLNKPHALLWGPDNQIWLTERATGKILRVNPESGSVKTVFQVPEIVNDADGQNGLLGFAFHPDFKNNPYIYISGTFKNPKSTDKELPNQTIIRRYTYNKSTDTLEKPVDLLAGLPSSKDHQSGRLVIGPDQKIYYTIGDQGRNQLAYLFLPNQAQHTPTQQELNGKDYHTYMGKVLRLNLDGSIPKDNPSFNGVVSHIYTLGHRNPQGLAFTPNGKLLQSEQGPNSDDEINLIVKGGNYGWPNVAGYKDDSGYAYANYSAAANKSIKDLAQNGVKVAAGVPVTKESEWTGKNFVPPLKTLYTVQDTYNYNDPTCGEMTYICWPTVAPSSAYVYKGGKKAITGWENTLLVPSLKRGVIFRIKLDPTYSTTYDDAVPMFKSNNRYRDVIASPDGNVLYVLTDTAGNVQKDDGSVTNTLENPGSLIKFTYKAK
Experimental: (§1) The enzyme solution was prepared using deionized water and the molar concentration was calculated assuming the molecular mass of the enzyme to be 100 kDa.
(§2) The dependence of PQQGDH catalysed substrate oxidation rate of substrate concentration was estimated for various substrates at thionine concentration of 220 µM (Fig. 3). The dependence of thionine reduction rate on carbohydrate concentration was analysed by applying the equation X1 and the apparent parameters KM, Ki and Vmax were calculated: v = (s⋅Vmax)/(KM + s⋅(1+(s)/(Ki))) [formula]
(§3) The ratio of Vmax with Km was considered as the parameter specifying the reactivity of the various substrates - the higher the value of the ratio - the better substrate reactivity. Ki - is the enzyme inhibition by the substrate constant. The concentration of the substrate at which the rate of thionine reduction was maximal (Cmax) was calculated as sqrt(KM ⋅Ki) [formula] .

[2] = molecular target: T1, PQQGDH; experiment: biochemical
Experimental: as §1, §2, §3

[3] = molecular target: T2, horseradish peroxidase (Armoracia rusticana, UniProt P00433); conditions: cited from earlier work
T2 sequence (P00433 31-338 limits assumed): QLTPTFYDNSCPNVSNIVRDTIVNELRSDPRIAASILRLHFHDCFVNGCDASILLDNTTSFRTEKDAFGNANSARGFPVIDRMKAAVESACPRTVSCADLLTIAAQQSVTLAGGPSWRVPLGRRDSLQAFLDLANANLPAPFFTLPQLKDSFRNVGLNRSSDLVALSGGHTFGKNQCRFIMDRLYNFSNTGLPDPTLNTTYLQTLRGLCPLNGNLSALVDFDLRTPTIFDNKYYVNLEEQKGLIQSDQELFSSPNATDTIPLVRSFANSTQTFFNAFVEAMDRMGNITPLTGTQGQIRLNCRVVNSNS

[4] = substrate: O=C[C@H](O)[C@@H](O)[C@H](O)CO; experiment: purified protein, by the assay type; conditions: other: pH 7.0, thionine 220 µM, apparent parameter
Experimental: as §1, §2, §3

[5] = substrate: O=C[C@H](O)[C@H](O)[C@H](O)CO; experiment: purified protein, by the assay type; conditions: other: pH 7.0, thionine 220 µM, apparent parameter
Experimental: as §1, §2, §3

[6] = substrate: O=C[C@H](O)[C@@H](O)[C@@H](O)[C@H](O)CO; experiment: purified protein, by the assay type; conditions: apparent parameter
Experimental: as §1, §2, §3

[7] = substrate: OC[C@H]1O[C@@H](O[C@H]2[C@H](O)[C@@H](O)C(O)O[C@@H]2CO)[C@H](O)[C@@H](O)[C@H]1O; experiment: purified protein, by the assay type; conditions: apparent parameter
Experimental: as §1, §2, §3

[8] = pH 7.0, thionine 220 µM, substrate concentration at maximal rate
[9] = pH 7.0, thionine 410 µM (asterisk)
[10] = Ki, pH 7.0, thionine 410 µM (asterisk), enzyme inhibition by the substrate constant
[11] = other: pH 7.0, thionine 410 µM (asterisk)

## O=C[C@H](O)[C@@H](O)[C@H](O[C@@H]1O[C@H](CO)[C@@H](O)[C@H](O)[C@H]1O)[C@H](O)CO [Cellobiose]
[1]; grouping of substrates
  substrate concentration at which the maximal reaction rate was observed (cmax): < 20 mM
[1]; [8]
  cmax: 2.4 ± 0.2 mM
[1]; [9]
  cmax: 3.3 ± 0.2 mM
[2]
  Ki: 11 ± 1 mM
[2]; [10]
  Ki: 21 ± 1 mM

## O=C[C@H](O)[C@@H](O)[C@@H](O)[C@H](O)CO [Galactose]
[1]
  substrate concentration at which the maximal reaction rate was observed (cmax): < 20 mM

## OC[C@H]1O[C@@H](O[C@H]2[C@H](O)[C@@H](O)C(O)O[C@@H]2CO)[C@H](O)[C@@H](O)[C@H]1O (stereo partly shown) [Lactose]
[1]; grouping of substrates
  substrate concentration at which the maximal reaction rate was observed (cmax): < 20 mM
[1]; [8]
  cmax: 5.2 ± 0.9 mM
[1]; [9]
  cmax: 6.4 ± 0.4 mM
[2]
  Ki: 25 ± 2 mM
[2]; [10]
  Ki: 51 ± 2 mM

## O=C[C@@H](O)[C@@H](O)[C@H](O)CO [Lyxose]
[1]; grouping of substrates
  substrate concentration at which the maximal reaction rate was observed (cmax): > 20 mM
[1]; pH 7.0, thionine 220 µM, apparent parameter
  Vmax: 190 ± 40 s⁻¹
[1]; [8]
  cmax: >10^4 mM

## O=C[C@H](O)[C@H](O)[C@H](O)CO [Ribose]
[1]; grouping of substrates
  substrate concentration at which the maximal reaction rate was observed (cmax): > 20 mM
[1]; [8]
  cmax: 84 ± 39 mM

## O=C[C@H](O)[C@@H](O)[C@H](O)CO [Xylose]
[1]; grouping of substrates
  substrate concentration at which the maximal reaction rate was observed (cmax): > 20 mM
[1]; [8]
  cmax: 88 ± 8 mM

## Nc1ccc2c(c1)Sc1cc(N)ccc1N2 [leuco thionine]
[3]
  bimolecular horseradish peroxidase and leuco thionine reactivity constant: 4.8e+08 M⁻¹ s⁻¹

B1: PQQGDH (Acinetobacter calcoaceticus) (protein)
chain: DVPLTPSQFAKAKSENFDKKVILSNLNKPHALLWGPDNQIWLTERATGKILRVNPESGSVKTVFQVPEIVNDADGQNGLLGFAFHPDFKNNPYIYISGTFKNPKSTDKELPNQTIIRRYTYNKSTDTLEKPVDLLAGLPSSKDHQSGRLVIGPDQKIYYTIGDQGRNQLAYLFLPNQAQHTPTQQELNGKDYHTYMGKVLRLNLDGSIPKDNPSFNGVVSHIYTLGHRNPQGLAFTPNGKLLQSEQGPNSDDEINLIVKGGNYGWPNVAGYKDDSGYAYANYSAAANKSIKDLAQNGVKVAAGVPVTKESEWTGKNFVPPLKTLYTVQDTYNYNDPTCGEMTYICWPTVAPSSAYVYKGGKKAITGWENTLLVPSLKRGVIFRIKLDPTYSTTYDDAVPMFKSNNRYRDVIASPDGNVLYVLTDTAGNVQKDDGSVTNTLENPGSLIKFTYKAK
[4]
  Km: 7.1 ± 0.3 mM
  kcat: 460 ± 20 s⁻¹
[5]
  Km: 21 ± 5 mM
  kcat: 250 ± 60 s⁻¹
[6]; other: pH 7.0, thionine 220 µM
  Km: 2.4 ± 0.2 mM
  kcat: 350 ± 30 s⁻¹
[6]; [11]
  Km: 1.8 ± 0.1 mM
  kcat: 349 ± 2 s⁻¹
[7]; other: pH 7.0, thionine 220 µM
  Km: 1.5 ± 0.1 mM
  kcat: 380 ± 50 s⁻¹
[7]; [11]
  Km: 0.61 ± 0.02 mM
  kcat: 430 ± 10 s⁻¹
